Laboratory results: ChEMBL document CHEMBL4007384, “Synthesis and optimization of furano[3,2-d]pyrimidines as selective spleen tyrosine kinase (Syk) inhibitors” (Bioorg Med Chem Lett, 2016)

Legend:
[1] = target: T1, Aurora kinase A (Homo sapiens, UniProt O14965); experiment: Inhibition of AURKA (unknown origin) after 60 mins by TR-FRET assay
T1 sequence (O14965 whole entry): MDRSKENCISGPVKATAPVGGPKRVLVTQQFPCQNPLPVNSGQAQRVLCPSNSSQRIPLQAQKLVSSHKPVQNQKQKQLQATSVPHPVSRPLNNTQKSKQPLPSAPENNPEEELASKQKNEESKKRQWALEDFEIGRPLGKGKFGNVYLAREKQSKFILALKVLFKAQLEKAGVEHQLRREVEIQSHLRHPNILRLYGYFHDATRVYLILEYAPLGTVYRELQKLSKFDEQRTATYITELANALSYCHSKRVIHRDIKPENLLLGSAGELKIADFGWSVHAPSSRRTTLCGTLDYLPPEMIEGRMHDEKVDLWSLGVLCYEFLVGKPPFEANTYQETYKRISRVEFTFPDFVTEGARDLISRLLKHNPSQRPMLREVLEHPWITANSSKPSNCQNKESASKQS

[2] = target: Cyclin-dependent kinase 8 (Homo sapiens, UniProt P49336); experiment: Inhibition of CDK8 (unknown origin) after 60 mins by TR-FRET assay
[3] = target: Cyclin-dependent kinase 9 (Homo sapiens, UniProt P50750); experiment: Inhibition of CDK9 (unknown origin) after 60 mins by TR-FRET assay
[4] = target: Hepatocyte growth factor receptor (Homo sapiens, UniProt P08581); experiment: Inhibition of c-MET (unknown origin) after 60 mins by TR-FRET assay
[5] = target: Fibroblast growth factor receptor 1 (Homo sapiens, UniProt P11362); experiment: Inhibition of FGFR1 (unknown origin) after 60 mins by TR-FRET assay
[6] = target: Tyrosine-protein kinase Fyn (Homo sapiens, UniProt P06241); experiment: Inhibition of Fyn (unknown origin) after 60 mins by TR-FRET assay
[7] = target: Mitogen-activated protein kinase 8 (Homo sapiens, UniProt P45983); experiment: Inhibition of JNK1 (unknown origin) after 60 mins by TR-FRET assay
[8] = target: Leukocyte tyrosine kinase receptor (Homo sapiens, UniProt P29376); experiment: Inhibition of LTK (unknown origin) after 60 mins by TR-FRET assay
[9] = target: T2, Mitogen-activated protein kinase kinase kinase kinase 2 (Homo sapiens, UniProt Q12851); experiment: Inhibition of MAP4K2 (unknown origin) after 60 mins by TR-FRET assay
T2 sequence (Q12851 whole entry): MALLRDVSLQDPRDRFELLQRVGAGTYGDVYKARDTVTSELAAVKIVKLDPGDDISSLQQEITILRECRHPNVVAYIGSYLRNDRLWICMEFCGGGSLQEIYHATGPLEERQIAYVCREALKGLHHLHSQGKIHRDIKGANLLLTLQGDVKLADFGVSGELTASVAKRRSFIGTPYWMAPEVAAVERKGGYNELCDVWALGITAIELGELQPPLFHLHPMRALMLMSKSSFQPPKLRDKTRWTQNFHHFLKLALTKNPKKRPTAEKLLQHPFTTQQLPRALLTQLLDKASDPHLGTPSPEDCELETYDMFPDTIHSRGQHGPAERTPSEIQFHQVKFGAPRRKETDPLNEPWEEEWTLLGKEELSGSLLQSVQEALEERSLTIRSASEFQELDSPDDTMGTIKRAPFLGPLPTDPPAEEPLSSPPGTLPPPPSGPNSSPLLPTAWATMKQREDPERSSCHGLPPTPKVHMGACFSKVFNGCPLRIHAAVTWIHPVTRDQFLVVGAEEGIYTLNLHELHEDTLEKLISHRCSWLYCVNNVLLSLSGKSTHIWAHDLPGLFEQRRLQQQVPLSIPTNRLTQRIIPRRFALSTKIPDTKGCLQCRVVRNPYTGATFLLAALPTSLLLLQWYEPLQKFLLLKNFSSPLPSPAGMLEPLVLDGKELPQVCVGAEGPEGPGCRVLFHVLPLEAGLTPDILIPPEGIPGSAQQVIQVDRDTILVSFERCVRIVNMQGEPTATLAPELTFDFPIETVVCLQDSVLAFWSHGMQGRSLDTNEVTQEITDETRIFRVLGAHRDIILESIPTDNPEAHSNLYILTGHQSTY

[10] = target: Platelet-derived growth factor receptor beta (Homo sapiens, UniProt P09619); experiment: Inhibition of PDGFRB (unknown origin) after 60 mins by TR-FRET assay
[11] = target: T3, Serine/threonine-protein kinase D3 (Homo sapiens, UniProt O94806); experiment: Inhibition of Prkcn (unknown origin) after 60 mins by TR-FRET assay
T3 sequence (O94806 whole entry): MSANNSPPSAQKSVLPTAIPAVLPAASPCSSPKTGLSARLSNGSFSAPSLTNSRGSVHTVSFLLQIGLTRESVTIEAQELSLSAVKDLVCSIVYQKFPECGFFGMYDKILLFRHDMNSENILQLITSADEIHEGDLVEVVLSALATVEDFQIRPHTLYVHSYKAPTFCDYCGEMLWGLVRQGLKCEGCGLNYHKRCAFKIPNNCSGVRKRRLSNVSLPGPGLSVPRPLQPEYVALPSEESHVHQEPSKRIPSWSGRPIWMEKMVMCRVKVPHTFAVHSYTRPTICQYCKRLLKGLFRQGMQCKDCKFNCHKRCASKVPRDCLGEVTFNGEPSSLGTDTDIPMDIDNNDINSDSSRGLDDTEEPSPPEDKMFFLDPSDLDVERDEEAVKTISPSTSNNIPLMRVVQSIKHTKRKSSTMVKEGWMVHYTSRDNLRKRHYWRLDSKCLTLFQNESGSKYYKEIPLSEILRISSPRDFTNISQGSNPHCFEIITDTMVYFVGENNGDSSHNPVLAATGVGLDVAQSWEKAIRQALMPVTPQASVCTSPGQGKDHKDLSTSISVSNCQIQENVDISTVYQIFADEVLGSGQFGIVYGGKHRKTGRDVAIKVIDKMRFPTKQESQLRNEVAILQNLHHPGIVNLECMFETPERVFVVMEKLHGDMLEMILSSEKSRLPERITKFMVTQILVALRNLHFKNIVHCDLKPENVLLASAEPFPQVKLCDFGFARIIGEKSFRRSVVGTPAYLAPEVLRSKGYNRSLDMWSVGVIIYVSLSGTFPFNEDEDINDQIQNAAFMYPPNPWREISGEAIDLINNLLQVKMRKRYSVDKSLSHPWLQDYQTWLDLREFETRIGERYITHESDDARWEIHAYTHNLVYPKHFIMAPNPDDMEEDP

[12] = target: Activated CDC42 kinase 1 (Homo sapiens, UniProt Q07912); experiment: Inhibition of TNK2 (unknown origin) after 60 mins by TR-FRET assay
[13] = target: High affinity nerve growth factor receptor (Homo sapiens, UniProt P04629); experiment: Inhibition of TRKA (unknown origin) after 60 mins by TR-FRET assay
[14] = target: Ribosomal protein S6 kinase alpha-3 (Homo sapiens, UniProt P51812); experiment: Inhibition of RSK2 (unknown origin) after 60 mins by TR-FRET assay

Cyclin-dependent kinase 8, sequence (P49336 whole entry): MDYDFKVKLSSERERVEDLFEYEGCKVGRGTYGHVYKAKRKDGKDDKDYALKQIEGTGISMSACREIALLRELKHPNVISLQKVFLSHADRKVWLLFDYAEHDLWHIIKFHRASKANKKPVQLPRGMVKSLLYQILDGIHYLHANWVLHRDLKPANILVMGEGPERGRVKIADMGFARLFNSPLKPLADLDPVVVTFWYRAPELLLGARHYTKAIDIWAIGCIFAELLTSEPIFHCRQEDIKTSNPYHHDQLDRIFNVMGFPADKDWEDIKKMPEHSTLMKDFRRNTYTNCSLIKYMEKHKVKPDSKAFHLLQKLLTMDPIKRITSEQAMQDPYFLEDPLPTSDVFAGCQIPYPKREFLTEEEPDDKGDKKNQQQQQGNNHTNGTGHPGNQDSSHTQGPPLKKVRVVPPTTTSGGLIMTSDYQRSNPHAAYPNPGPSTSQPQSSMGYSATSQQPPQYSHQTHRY
Cyclin-dependent kinase 9, sequence (P50750 whole entry): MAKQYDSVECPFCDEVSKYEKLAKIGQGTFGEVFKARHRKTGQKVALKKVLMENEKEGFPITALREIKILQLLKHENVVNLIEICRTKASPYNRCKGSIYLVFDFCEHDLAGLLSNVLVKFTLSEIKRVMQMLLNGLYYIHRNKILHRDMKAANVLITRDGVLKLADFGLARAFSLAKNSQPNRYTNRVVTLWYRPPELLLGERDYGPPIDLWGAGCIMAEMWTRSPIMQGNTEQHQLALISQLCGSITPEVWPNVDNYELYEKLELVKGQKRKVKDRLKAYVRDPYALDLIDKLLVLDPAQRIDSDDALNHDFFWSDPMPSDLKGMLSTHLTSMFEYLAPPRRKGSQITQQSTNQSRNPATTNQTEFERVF
Leukocyte tyrosine kinase receptor, sequence (P29376 whole entry): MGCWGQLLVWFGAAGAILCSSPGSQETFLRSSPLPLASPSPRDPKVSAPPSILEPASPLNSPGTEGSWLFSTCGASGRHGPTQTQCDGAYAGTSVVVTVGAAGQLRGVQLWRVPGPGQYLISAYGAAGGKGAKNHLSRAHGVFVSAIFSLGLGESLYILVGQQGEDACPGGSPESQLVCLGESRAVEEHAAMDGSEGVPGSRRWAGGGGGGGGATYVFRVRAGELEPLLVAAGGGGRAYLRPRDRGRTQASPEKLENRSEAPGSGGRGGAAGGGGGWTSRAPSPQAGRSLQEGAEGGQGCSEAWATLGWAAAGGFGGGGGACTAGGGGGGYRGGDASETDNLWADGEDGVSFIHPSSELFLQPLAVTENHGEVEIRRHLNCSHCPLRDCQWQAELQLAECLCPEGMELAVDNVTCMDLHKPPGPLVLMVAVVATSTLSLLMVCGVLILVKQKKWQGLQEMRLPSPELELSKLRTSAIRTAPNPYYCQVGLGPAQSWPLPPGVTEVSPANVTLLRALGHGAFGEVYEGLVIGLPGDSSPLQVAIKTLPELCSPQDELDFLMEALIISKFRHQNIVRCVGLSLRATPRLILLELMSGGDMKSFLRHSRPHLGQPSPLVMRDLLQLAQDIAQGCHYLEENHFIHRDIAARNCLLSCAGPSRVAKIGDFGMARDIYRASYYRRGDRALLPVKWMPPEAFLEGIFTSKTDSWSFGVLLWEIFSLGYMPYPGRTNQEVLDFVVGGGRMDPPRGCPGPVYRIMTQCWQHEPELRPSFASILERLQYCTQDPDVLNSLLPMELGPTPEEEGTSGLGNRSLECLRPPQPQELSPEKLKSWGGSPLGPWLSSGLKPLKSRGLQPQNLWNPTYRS
Mitogen-activated protein kinase 8, sequence (P45983 whole entry): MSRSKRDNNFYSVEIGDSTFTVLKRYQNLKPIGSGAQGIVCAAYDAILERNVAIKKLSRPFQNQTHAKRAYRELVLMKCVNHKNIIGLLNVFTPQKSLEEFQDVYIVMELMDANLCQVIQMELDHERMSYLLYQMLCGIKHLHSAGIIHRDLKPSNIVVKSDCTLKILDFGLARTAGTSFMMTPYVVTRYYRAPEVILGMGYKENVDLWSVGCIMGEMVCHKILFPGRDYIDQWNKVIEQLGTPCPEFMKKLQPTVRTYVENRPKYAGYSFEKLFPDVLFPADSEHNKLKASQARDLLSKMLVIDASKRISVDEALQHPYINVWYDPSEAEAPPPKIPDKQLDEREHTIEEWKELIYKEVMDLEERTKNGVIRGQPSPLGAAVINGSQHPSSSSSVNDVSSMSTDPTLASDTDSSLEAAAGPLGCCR
High affinity nerve growth factor receptor, sequence (P04629 whole entry): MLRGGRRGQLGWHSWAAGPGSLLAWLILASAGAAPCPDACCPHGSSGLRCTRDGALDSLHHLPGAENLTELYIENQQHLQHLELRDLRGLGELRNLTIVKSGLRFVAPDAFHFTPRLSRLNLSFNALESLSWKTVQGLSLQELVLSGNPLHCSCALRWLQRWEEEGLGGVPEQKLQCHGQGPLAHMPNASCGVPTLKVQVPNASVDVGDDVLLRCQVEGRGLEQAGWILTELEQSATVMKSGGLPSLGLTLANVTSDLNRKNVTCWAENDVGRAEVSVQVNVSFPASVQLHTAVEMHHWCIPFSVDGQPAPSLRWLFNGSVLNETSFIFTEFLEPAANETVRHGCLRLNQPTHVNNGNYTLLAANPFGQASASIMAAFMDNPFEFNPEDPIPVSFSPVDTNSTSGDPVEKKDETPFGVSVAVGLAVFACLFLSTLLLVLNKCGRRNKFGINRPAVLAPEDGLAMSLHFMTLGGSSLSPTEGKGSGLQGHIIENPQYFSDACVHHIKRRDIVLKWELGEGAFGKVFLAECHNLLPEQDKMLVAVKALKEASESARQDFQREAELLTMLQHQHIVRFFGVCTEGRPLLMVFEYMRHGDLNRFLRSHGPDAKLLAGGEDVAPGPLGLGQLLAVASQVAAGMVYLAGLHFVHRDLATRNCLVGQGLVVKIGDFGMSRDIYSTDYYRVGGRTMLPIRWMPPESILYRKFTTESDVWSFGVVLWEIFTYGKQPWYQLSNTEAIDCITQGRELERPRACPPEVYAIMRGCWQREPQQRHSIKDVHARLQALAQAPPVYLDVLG
Fibroblast growth factor receptor 1, sequence (P11362 whole entry): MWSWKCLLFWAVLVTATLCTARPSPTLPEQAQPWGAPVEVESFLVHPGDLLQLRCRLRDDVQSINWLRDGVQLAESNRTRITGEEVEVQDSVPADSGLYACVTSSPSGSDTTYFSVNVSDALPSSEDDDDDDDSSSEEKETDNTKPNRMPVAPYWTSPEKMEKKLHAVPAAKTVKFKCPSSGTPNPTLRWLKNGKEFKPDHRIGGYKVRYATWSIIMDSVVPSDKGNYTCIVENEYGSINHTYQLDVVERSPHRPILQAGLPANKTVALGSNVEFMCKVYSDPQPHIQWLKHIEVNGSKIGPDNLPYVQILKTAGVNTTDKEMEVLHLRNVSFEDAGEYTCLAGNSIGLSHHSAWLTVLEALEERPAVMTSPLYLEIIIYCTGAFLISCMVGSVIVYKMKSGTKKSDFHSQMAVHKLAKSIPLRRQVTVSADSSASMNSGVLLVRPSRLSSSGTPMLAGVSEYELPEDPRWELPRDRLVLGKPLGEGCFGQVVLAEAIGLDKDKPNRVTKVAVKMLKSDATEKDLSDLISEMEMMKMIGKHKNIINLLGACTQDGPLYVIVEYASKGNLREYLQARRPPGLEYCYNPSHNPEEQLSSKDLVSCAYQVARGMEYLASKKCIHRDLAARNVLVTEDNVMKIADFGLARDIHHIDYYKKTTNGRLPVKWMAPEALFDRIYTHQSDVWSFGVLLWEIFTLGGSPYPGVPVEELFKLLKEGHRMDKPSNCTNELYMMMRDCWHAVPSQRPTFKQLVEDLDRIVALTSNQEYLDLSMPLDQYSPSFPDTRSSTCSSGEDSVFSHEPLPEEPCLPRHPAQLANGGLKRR
Platelet-derived growth factor receptor beta, sequence (P09619 whole entry): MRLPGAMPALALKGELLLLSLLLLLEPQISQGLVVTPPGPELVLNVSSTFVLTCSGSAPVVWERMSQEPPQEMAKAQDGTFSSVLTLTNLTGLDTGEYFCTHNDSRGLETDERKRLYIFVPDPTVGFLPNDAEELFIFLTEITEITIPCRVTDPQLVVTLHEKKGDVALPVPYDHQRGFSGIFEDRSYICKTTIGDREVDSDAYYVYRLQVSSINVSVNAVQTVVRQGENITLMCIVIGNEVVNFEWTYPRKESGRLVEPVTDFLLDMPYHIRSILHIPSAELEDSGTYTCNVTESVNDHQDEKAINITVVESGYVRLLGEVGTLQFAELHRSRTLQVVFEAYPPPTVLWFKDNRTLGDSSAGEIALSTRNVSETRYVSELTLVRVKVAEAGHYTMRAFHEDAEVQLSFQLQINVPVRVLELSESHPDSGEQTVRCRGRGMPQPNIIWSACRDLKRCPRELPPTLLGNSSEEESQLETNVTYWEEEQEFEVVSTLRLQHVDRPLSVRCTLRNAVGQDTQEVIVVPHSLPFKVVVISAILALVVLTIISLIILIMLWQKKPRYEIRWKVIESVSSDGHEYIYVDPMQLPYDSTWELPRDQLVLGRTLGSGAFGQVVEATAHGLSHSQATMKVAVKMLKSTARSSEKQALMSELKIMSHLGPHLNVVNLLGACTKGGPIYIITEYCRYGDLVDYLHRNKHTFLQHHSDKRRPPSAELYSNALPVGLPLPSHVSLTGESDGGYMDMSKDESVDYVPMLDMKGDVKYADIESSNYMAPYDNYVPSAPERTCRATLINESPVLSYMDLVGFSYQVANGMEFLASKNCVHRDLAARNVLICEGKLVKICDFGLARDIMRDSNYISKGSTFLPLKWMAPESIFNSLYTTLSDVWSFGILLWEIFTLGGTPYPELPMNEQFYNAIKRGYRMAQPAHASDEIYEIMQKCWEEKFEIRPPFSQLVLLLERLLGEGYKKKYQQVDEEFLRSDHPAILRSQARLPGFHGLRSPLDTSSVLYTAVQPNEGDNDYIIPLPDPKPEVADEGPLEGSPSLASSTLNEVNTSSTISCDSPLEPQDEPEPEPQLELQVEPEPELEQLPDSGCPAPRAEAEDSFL

| IC50 [1] [µM] | IC50 [2] [µM] | IC50 [3] [µM] | IC50 [4] [µM] | IC50 [5] [µM] | IC50 [6] [nM] | IC50 [7] [nM] | IC50 [8] [µM] | IC50 [9] [nM] | IC50 [10] [µM] | IC50 [11] [µM] | IC50 [12] [nM] | IC50 [13] [µM] | IC50 [14] [µM] | SMILES |
| --- | --- | --- | --- | --- | --- | --- | --- | --- | --- | --- | --- | --- | --- | --- |
| > 10 | > 10 | > 10 | > 10 | > 10 | 5960 | 2750 | 6.01 | 6240 | > 10 | > 10 | 1320 | > 10 | – | Cc1n[nH]c2cc(Nc3nc(NC4CC4)c4occc4n3)ccc12 |
| > 10 | 2.11 | > 10 | > 10 | > 10 | – | 2890 | 7.4 | – | > 10 | > 10 | 3460 | > 10 | 9.81 | FC(F)(F)CNc1nc(Nc2ccc3cn[nH]c3c2)nc2ccoc12 |
| 4.05 | > 10 | > 10 | > 10 | > 10 | 201 | 2670 | 5.11 | 2940 | 5.19 | > 10 | 1330 | 5.4 | > 10 | CC1(C)OCC(=O)Nc2cc(Nc3nc(NCC(F)(F)F)c4occc4n3)ccc21 |
| > 10 | > 10 | > 10 | > 10 | > 10 | 1510 | 513 | > 10 | 1570 | > 10 | > 10 | 4020 | > 10 | > 10 | FC(F)(F)CNc1nc(Nc2ccc(N3CCOCC3)c(Cl)c2)nc2ccoc12 |
